This note sets out measurements from patent US20240294522A1 (Lead Discovery Center GmbH, priority 2021, published 2024).

Where only a bound is given, the exact number is not on record here.

Assay [1] deals with T1, GRK5 (Homo sapiens, UniProt P34947).
T1 construct: purchased Thermo Scientific
The assay is described as follows: Lance Kinase Activity Assay, GRK5. To be noted: biochemical Lance kinase activity assay; class symbols A-F; read-out: GRK5 LANCE Assay (IC-50). Summed up:
(§1)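 IC50s from sigmoidal dose-response over 0.0025-10 μM compound, with phosphorylated ULight substrate detected by Eu anti-phospho antibody FRET after EDTA quench.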

Assay [2] deals with T2, GRK2 (Homo sapiens, UniProt P25098).
T2 construct: purchased Thermo Scientific
T2 sequence (P25098 1-689): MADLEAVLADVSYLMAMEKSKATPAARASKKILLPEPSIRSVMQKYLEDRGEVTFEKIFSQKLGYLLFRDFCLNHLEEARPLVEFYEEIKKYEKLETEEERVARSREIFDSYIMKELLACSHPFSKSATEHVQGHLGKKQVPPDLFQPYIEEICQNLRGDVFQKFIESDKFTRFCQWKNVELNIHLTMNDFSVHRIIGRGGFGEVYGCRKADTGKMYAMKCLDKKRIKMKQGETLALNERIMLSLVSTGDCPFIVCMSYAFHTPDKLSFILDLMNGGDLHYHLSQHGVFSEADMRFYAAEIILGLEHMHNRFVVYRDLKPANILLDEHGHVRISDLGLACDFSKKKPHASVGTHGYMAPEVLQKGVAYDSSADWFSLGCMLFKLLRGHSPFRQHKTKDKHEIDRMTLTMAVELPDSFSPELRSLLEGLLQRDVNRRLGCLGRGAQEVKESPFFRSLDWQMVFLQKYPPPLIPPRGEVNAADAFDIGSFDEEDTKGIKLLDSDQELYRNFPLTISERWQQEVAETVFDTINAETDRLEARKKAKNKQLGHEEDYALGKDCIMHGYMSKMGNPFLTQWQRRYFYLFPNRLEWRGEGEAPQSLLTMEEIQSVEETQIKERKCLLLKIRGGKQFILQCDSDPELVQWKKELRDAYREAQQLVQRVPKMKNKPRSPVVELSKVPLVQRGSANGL
The assay is described as follows: Lance Kinase Activity Assay, GRK2. The note with it: biochemical Lance kinase activity assay; class symbols A-F; read-out: GRK2 LANCE Assay (IC-50). Summed up: as §1

Assay [3] has as its system neonatal rat ventricular cardiac myocytes (NRVCMs). The assay is described as follows: In vitro cardiomyocyte hypertrophy assay. Format: cell-based, Wistar rats. To be noted: inhibition of cellular hypertrophy, NRVCMs stimulated with phenylephrine 20 μM and leukemia inhibitory factor 50 ng/ml, 96 h, read-out: Hypertrophy Assay (IC-50). As for the experimental part: 5-6 days old Wistar rats were sacrificed by decapitation and neonatal rat ventricular cardiac myocytes (NRVCMs) were prepared using the Neonatal heart dissociation kit (Miltenyi Biotec) according to the manufacturer's instructions. The cardiac single cell suspension was resuspended in DMEM low glucose medium supplemented with 2% fetal bovine serum (FBS) and 50 μg/ml penicillin/streptomycin. 1500 cells/well were seeded on 0.1% gelatin-coated 384-well plates and incubated in medium at 37° C. and 5% CO2 for 24 h prior to the addition of test compounds to the cells at titrated concentrations. Cellular hypertrophy was then stimulated by adding phenylephrine and leukemia inhibitory factor at final concentrations of 20 μM and 50 ng/ml, respectively, and the cells were incubated for another 96 h. For immunocytochemistry, cells were fixed with 4% formaldehyde on day 5 of compound treatment and cardiomyocytes were stained with antibodies against a-actinin while cell nuclei were stained with DAPI. Image acquisition and phenotypic analysis was performed using an Image-Xpress Micro XL automated microscope (Molecular Devices).
Inhibition of cellular hypertrophy is indicated as IC50 [nM]. Compounds having an activity designated as “A” provided an IC50≤500 nM; compounds having an activity designated as “B” provided an 500 nM<IC50≤1000 nM; compounds having an activity designated as “C” provided an IC50>1000 nM.

T1 sequence (P34947 whole entry): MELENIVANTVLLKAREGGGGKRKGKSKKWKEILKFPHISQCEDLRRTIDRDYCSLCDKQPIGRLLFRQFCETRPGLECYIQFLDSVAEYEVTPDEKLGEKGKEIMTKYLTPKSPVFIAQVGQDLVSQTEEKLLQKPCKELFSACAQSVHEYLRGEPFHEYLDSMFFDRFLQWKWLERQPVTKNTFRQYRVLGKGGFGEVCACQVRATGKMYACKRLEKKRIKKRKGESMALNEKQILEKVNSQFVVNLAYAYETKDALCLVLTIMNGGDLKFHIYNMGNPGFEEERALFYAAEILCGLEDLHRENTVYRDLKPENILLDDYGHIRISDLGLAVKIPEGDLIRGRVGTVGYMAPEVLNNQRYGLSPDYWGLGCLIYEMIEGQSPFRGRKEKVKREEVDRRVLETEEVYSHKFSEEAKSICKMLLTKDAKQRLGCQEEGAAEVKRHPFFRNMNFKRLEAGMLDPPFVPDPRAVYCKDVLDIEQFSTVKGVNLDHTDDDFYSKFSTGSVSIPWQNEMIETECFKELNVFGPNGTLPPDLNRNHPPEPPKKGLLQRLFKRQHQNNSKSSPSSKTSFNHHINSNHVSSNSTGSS

On to `COc1ccc([C@@H](C)NC(=O)/C(C#N)=C/c2c[nH]c3ncc(-c4cnn(C5CCNCC5)c4)cc23)cc1OC` [Example 89, (R,E)-2-cyano-N-(1-(3,4-dimethoxyphenyl)ethyl)-3-(5-(1-(piperidin-4-yl)-1H-pyrazol-4-yl)-1H-pyrrolo[2,3-b]pyridin-3-yl)acrylamide], for which the IC50 in assay [1] is ≤ 50 nM; in assay [2] it was 1000 to 10000 nM; in assay [3] it was > 1000 nM.
The like results for `COc1ccc([C@@H](CO)NC(=O)/C(C#N)=C/c2c[nH]c3ncc(-c4cnn(C)c4)cc23)cc1OC` [Example 92, (S,E)-2-cyano-N-(1-(3,4-dimethoxyphenyl)-2-hydroxyethyl)-3-(5-(1-methyl-1H-pyrazol-4-yl)-1H-pyrrolo[2,3-b]pyridin-3-yl)acrylamide] were, in that order, ≤ 50 nM, 1000 to 10000 nM and > 1000 nM.
On the same counts, the results for `COc1cc([C@@H](C)NC(=O)/C(C#N)=C/c2c[nH]c3ncc(-c4cnn(C)c4)cc23)ccc1F` [Example 94, (R,E)-2-cyano-N-(1-(4-fluoro-3-methoxyphenyl)ethyl)-3-(5-(1-methyl-1H-pyrazol-4-yl)-1H-pyrrolo[2,3-b]pyridin-3-yl)acrylamide] are ≤ 50 nM, 50 to 100 nM and ≤ 500 nM.
The like results for `COc1ccc([C@@H](C)NC(=O)/C(C#N)=C/c2c[nH]c3ncc(OCCN(C)C)cc23)cc1OC` [Example 104, (R,E)-2-cyano-N-(1-(3,4-dimethoxyphenyl)ethyl)-3-(5-(2-(dimethylamino)ethoxy)-1H-pyrrolo[2,3-b]pyridin-3-yl)acrylamide] were, in that order, ≤ 50 nM, 1000 to 10000 nM and > 1000 nM.
As for `COc1ccc([C@@H](C)NC(=O)/C=C/c2c[nH]c3ncc(-c4ccc(N5CCN(C)CC5)cc4)cc23)cc1OC` [Example 113, (R,E)-N-(1-(3,4-dimethoxyphenyl)ethyl)-3-(5-(4-(4-methylpiperazin-1-yl)phenyl)-1H-pyrrolo[2,3-b]pyridin-3-yl)acrylamide], the IC50 in assay [1] was ≤ 50 nM; in assay [2], 500 to 1000 nM; in assay [3], ≤ 500 nM.
Consider `COc1ccc([C@@H](C)NC(=O)/C(C#N)=C/c2c[nH]c3ncc(-c4ccc(CN(C)C)cc4)cc23)cc1OC` [Example 117, (R,E)-2-cyano-N-(1-(3,4-dimethoxyphenyl)ethyl)-3-(5-(4-((dimethylamino)methyl)phenyl)-1H-pyrrolo[2,3-b]pyridin-3-yl)acrylamide], for which the results for the IC50 in assay [1], in assay [2] and in assay [3] were ≤ 50 nM, 1000 to 10000 nM and 500 to 1000 nM, respectively.
On to `COc1ccc([C@@H](C)NC(=O)/C(C#N)=C/c2c[nH]c3ncc(-c4ccc(F)c(S(C)(=O)=O)c4)cc23)cc1OC` [Example 169], for which the IC50 was ≤ 50 nM in assay [1], 1000 to 10000 nM in assay [2] and 500 to 1000 nM in assay [3].
On to `COc1ccc([C@@H](C)NC(=O)/C=C/c2c[nH]c3ncc(-c4cnn5ccccc45)cc23)cc1OC` [Example 205, (R,E)-N-(1-(3,4-dimethoxyphenyl)ethyl)-3-(5-(pyrazolo[1,5-a]pyridin-3-yl)-1H-pyrrolo[2,3-b]pyridin-3-yl)acrylamide], for which the values for the IC50 in assay [1], in assay [2] and in assay [3] were ≤ 50 nM, 1000 to 10000 nM and 500 to 1000 nM, respectively.
The like results for `COc1ccc([C@@H](C)NC(=O)/C=C/c2c[nH]c3ncc(-c4cnn(CCN(C)C)c4)cc23)cc1OC` [Example 213, (R,E)-N-(1-(3,4-dimethoxyphenyl)ethyl)-3-(5-(1-(2-(dimethylamino)ethyl)-1H-pyrazol-4-yl)-1H-pyrrolo[2,3-b]pyridin-3-yl)acrylamide] were, in that order, ≤ 50 nM, 1000 to 10000 nM and > 1000 nM.
On the same counts, the results for `COc1ccc([C@@H](C)NC(=O)/C=C/c2c[nH]c3ncc(-c4ccc(S(C)(=O)=O)cc4)cc23)cc1OC` [Example 219, (R,E)-N-(1-(3,4-dimethoxyphenyl)ethyl)-3-(5-(4-(methylsulfonyl)phenyl)-1H-pyrrolo[2,3-b]pyridin-3-yl)acrylamide] are ≤ 50 nM, 1000 to 10000 nM and > 1000 nM.
On the same counts, the results for `C[C@@H](NC(=O)/C(C#N)=C/c1c[nH]c2ncc(-c3cnn(C)c3)cc12)c1ccc2c(c1)OCO2` [Example 252, (R,E)-N-(1-(benzo[d][1,3]dioxol-5-yl)ethyl)-2-cyano-3-(5-(1-methyl-1H-pyrazol-4-yl)-1H-pyrrolo[2,3-b]pyridin-3-yl)acrylamide] are ≤ 50 nM, 500 to 1000 nM and ≤ 500 nM.
For `COc1ccc([C@@H](C)NC(=O)/C=C/c2c[nH]c3ncc(-c4cccc(SC)c4)cc23)cc1OC` [Example 254, (R,E)-N-(1-(3,4-dimethoxyphenyl)ethyl)-3-(5-(3-(methylthio)phenyl)-1H-pyrrolo[2,3-b]pyridin-3-yl)acrylamide], the IC50 was ≤ 50 nM in assay [1], > 10000 nM in assay [2] and > 1000 nM in assay [3].
`COc1ccc([C@@H](C)NC(=O)/C=C/c2c[nH]c3ncc(-c4cc(S(C)(=O)=O)ccn4)cc23)cc1OC` [Example 259, (R,E)-N-(1-(3,4-dimethoxyphenyl)ethyl)-3-(5-(4-(methylsulfonyl)pyridin-2-yl)-1H-pyrrolo[2,3-b]pyridin-3-yl)acrylamide]: the IC50 in assay [1] was ≤ 50 nM; in assay [2], 1000 to 10000 nM.
As to `Cc1noc2ccc([C@@H](C)NC(=O)/C=C/c3c[nH]c4ncc(-c5cnn(C)c5)cc34)cc12` [Example 260, (R,E)-3-(5-(1-methyl-1H-pyrazol-4-yl)-1H-pyrrolo[2,3-b]pyridin-3-yl)-N-(1-(3-methylbenzo[d]isoxazol-5-yl)ethyl)acrylamide], the IC50 in assay [1] was ≤ 50 nM; in assay [2] it was 50 to 100 nM.
`Cc1nn(C)c2cc([C@@H](C)NC(=O)/C(C#N)=C/c3c[nH]c4ncc(-c5cnn(C)c5)cc34)ccc12` [Example 261, (R,E)-2-cyano-N-(1-(1,3-dimethyl-1H-indazol-6-yl)ethyl)-3-(5-(1-methyl-1H-pyrazol-4-yl)-1H-pyrrolo[2,3-b]pyridin-3-yl)acrylamide]: the values for the IC50 in assay [1] and in assay [2] were ≤ 50 nM and > 10000 nM, respectively.
On the same counts, the results for `Cc1nn(C)c2ccc([C@@H](C)NC(=O)/C(C#N)=C/c3c[nH]c4ncc(-c5cnn(C)c5)cc34)cc12` [Example 262, (R,E)-2-cyano-N-(1-(1,3-dimethyl-1H-indazol-5-yl)ethyl)-3-(5-(1-methyl-1H-pyrazol-4-yl)-1H-pyrrolo[2,3-b]pyridin-3-yl)acrylamide] are ≤ 50 nM and > 10000 nM.
The like results for `COc1ccc([C@@H](C)NC(=O)/C=C/c2c[nH]c3ncc(-c4cccc([S+]([O-])C(F)(F)F)c4)cc23)cc1OC` (stereo partly drawn) [Example 263, (E)-N-((R)-1-(3,4-dimethoxyphenyl)ethyl)-3-(5-(3-((trifluoromethyl)sulfinyl)phenyl)-1H-pyrrolo[2,3-b]pyridin-3-yl)acrylamide] were, in that order, ≤ 50 nM and > 10000 nM.
The like results for `COc1ccc([C@@H](C)NC(=O)/C=C/c2c[nH]c3ncc(-c4cccc(S(=O)(=O)C(F)(F)F)c4)cc23)cc1OC` [Example 264, (R,E)-N-(1-(3,4-dimethoxyphenyl)ethyl)-3-(5-(3-((trifluoromethyl)sulfonyl)phenyl)-1H-pyrrolo[2,3-b]pyridin-3-yl)acrylamide] were, in that order, ≤ 50 nM and > 10000 nM.
As to `COc1cc(C(C)NC(=O)/C=C/c2c[nH]c3ncc(-c4cnn(C)c4)cc23)cnc1OC` (centres unmarked) [Example 265, (E)-N-(1-(5,6-dimethoxypyridin-3-yl)ethyl)-3-(5-(1-methyl-1H-pyrazol-4-yl)-1H-pyrrolo[2,3-b]pyridin-3-yl)acrylamide], the values for the IC50 in assay [1] and in assay [2] were 50 to 100 nM and > 10000 nM, respectively.
